Source: US20120142606A1, “TUMOR TARGETING PEPTIDES, THERAPEUTIC AND DIAGNOSTIC COMPOSITIONS COMPRESSING THE PEPTIDES” (priority 2009, published 2012)

Experiments:
MCF7 cells [1] = test: Peptide binding to MCF7 breast cancer cells by flow cytometry; conditions: 0.1-100 μg/ml peptide, 4° C., 20 minutes
Protocol: (§1) To assess peptide binding, MCF7 cells were incubated with increasing doses (0.1-100 μg/ml) of the BK-FITC peptide at 4° C. for 20 minutes. Cells were subsequently washed 4 times with PBS and analyzed by flow cytometry. […] Subsequently, we evaluated the specificity of the BK-peptide for breast cancer cells by incubating MCF7 cells in parallel with human peripheral blood mononuclear cells under the same conditions as mentioned above.
(§2) FIG. 2. […] MCF7 cells (left panel) and human peripheral blood mononuclear cells (PBMC) (right panel) were incubated with increasing doses of peptide for 20 min at 4° C. The cells were subsequently analyzed by flow cytometry for mean fluorescence intensity of FITC, depicted on the y-axis.

White blood cells (WBCs) = test: Killing of white blood cells (normal cell control), propidium iodide staining and flow cytometry; type: cell-based; conditions: 50 μg/ml peptide, 24 h, WBCs from a healthy donor
Protocol: (§3) Next, we examined to what extent the peptide specifically kills MCF7 cells. White blood cells (WBCs) were used as a control for normal non-cancerous cells. WBCs were isolated from a healthy donor by ficoll hypaque gradient centrifugation. Red blood cells were removed using a red blood cell lysis buffer and the remaining WBCs were used for the experiment. MCF7 cells and WBCs were incubated with 50 μg/ml peptide or medium only for 24 h. Cells were collected, stained with propidium iodide (PI) and analyzed for apoptosis by flow cytometry (FIG. 3). The data was analyzed by gating on life PI negative cells which is depicted as % viable cells on the y-axis.

[2] = test system: human peripheral blood mononuclear cells; test: Peptide binding to peripheral blood mononuclear cells by flow cytometry (specificity); conditions: 0.1-100 μg/ml peptide, 4° C., 20 minutes
Protocol: as §1, §2

MCF7 cells [3] = test: Killing of MCF7 cells, propidium iodide staining and flow cytometry; type: cell-based; conditions: 50 μg/ml peptide, 24 h
Protocol: as §3

| Substance | binding to MCF7 cells, mean fluorescence intensity (MFI) of FITC (MCF7 cells [1]) | killing of white blood cells (% viable cells, PI negative) (White blood cells (WBCs)) | binding to peripheral blood mononuclear cells, mean fluorescence intensity of FITC [2] | killing of MCF7 cells (% viable cells, PI negative) (MCF7 cells [3]) |
| --- | --- | --- | --- | --- |
| KLAKLAKKLAKLAK-GG-LTVXPWY (SEQ ID NO:9) conjugated to fluoresceinisothiocyanate (FITC) [BK1-FITC, BK1-peptide conjugated to fluoresceinisothiocyanate] | dose dependent increase in mean fluorescence intensity | – | – | – |
| KLAKLAKKLAKLAK-GG-LTVXPWY [BK1-peptide] | binds to breast cancer cells | but not white blood cells | did not observe binding | kills MCF7 |
